{"source": "patent US20090298745A1", "about": "“Treatment of Diabetes with Glycogen Phosphorylase Inhibitors” (priority 2004, published 2009)", "system": "Diabetic ZDF male rats", "assay": "In vivo animal model to mimic human night time dosing", "set-up": "species or system rat", "details": "30 mg/kg po via gavage in 10% Gelucire 44/14; 360 min after dosing at 14 weeks old, from start of dosing (T=0); p=0.019 versus vehicle controls", "procedure": "Diabetic ZDF male rats (Charles River) were allowed free access to tap water and enriched pelleted chow diet (M-Z Ereich; Art. No. V1185-000; Ssniff R Spezialdiäten GmbH, D-59494, Soest Germany) ad-libitum for 4 weeks until they were 8 weeks old. The animals were housed under a 16 hr/8 hr:dark/light phase (lights on 09:00). As the animals progressed to the diabetic state, weekly blood glucose and insulin measurement were made at the end of the light period (17:00 h) and a blood glucose measurement made at the end of the active (dark) cycle (08:30-09:00 h). When the animals had reached 8 weeks of age, they were trained on a meal paradigm, by removal of food during the light period (09:00-17:00 h), which was maintained for the remainder of the study. After the animals had reached 12 weeks of age, and their diabetic status had been confirmed using the fasted glucose measurements (>8 mM), the animals were divided into groups. […] Blood glucose and insulin concentrations were measured by the glucose oxidase method (Super G Glucose analyzer; Dr. Müller Gerätebau, Freital, Germany) and Elisa technique, respectively, at T=−45 min, before dosing (08:15 h) and then at T=0 min ([…]), T=45 min (09:45 h), T=90 min (10:30 h), T=150 min (11:20 h) and T=360 min (15:00 h) after each weekly successive test compound dose."}
{"smiles": "O=C(N[C@@H](Cc1ccc(F)cc1)C(=O)N1CCC(O)CC1)c1cc2cc(Cl)ncc2[nH]1", "note": "[Example 3, 5-chloro-1H-pyrrolo[2,3-c]pyridine-2-carboxylic acid [1-(S)-(4-fluorobenzyl)-2-(4-hydroxypiperidin-1-yl)-2-oxoethyl]amide]", "values": [{"measurement": "reduction in blood glucose concentration (mean+/−S.D.)", "value": "6.28 ± 2.47", "unit": "mM"}]}
